Measurements as given in US6932975B2, “Cosmetic composition comprising a phosphoric triester and a skin activating component” (Kao Corporation, priority 1997, dated 2005).

Tested on: horny layer of the lower inner arm
Experiment: Retention of moisturizing effect: water content in the horny layer by impedance meter (Example 2)
Assay type: in vivo, human
Settings: 20° C., humidity 30%, average N=10; for Retention of moisturizing effect (water content in the horny layer), After 3 hr.: after additional 3 hours, washed with hot water again; for Retention of moisturizing effect (water content in the horny layer), After 15 min.: applied 1 hour, washed off with hot water, 15 minutes after
Protocol: Cosmetics of their corresponding formulations shown in Table 7 were prepared to determine the retention of their moisturizing effects.
A fixed amount of each of the above samples was applied to the lower inner arm of a volunteer and washed off with hot water after left at rest for 1 hour. The volunteer was got to enter an air-conditioned room kept at a temperature of 20° C. and a humidity of 30%. Fifteen minutes after that, the water content in the horny layer of the volunteer was measured by an impedance meter (manufactured by IBS Company). After additional 3 hours, the treated arm was washed with hot water again. Fifty minutes after that, the water content was measured in the same manner as described above. The values shown in the table were average values (N=10).

Compound | Retention of moisturizing effect (water content in the horny layer), After 3 hr. [μΩ^−1] | Retention of moisturizing effect (water content in the horny layer), After 15 min. [μΩ^−1]
CCCCOCCOP(=O)(OCCOCCCC)OCCOCCCC [Comparative product 9, Tris(butoxyethyl) phosphate] | 40 | 70
OCC(O)CO [Comparative product 11, Glycerol] | 45 | 75
Bis(butoxyethoxyethyl)ethyl phosphate [Comparative product 8] | 40 | 70
O [Comparative product 12, Purified water] | 40 | 60
